The results in this text go back to US12544384B2, “Antibiotic conjugates” (priority 2018, dated 2026).

Converted amounts (≈) assume the structure as drawn. Read-outs that look alike come from different tables or passages of the source. A value given as a limit tells only on which side of the number the result lay.

One assay deals with A. baumannii ATCC 17978. Briefly: MIC, antimicrobial susceptibility assay in iron depleted media. To be noted: for Antibacterial activity (in words): A. baumannii ATCC 17978, low amount of ADC-1; for MIC: Acinetobacter baumannii, ATCC17978, A. baumannii ATCC 17978, small amount of chromosomal ADC-1, iron depleted media, average of three measurements. In kind it is cell-based, Acinetobacter baumannii. The source says: (§1) For this purpose, A. baumannii ATCC 17978, which produces a small amount of the chromosomally-encoded enzyme, and the same strain that produces a large amount of ADC-1 from the pNT255 vector were used (Table 1).

Assay [1] has as its system A. baumannii ATCC 17978 pNT255. Briefly: MIC, antimicrobial susceptibility assay, strain with pNT255 vector. To be noted: Acinetobacter baumannii, ATCC17978, read-out: Activity (MIC). In kind it is cell-based.
Source text: as §1

Assay [2] deals with A. baumannii ATCC 17978 pNT225: ADC-1. Briefly: MIC, antimicrobial susceptibility assay, strain with plasmid-encoded ADC-1 β-lactamase. In kind it is cell-based, Acinetobacter baumannii. To be noted: for MIC: Acinetobacter baumannii, ATCC17978, read-out: Activity (MIC).
Source text: as §1

The next assay relates to A. baumannii ATCC 17961. Briefly: MIC against clinical isolate. In kind it is cell-based, Acinetobacter baumannii. Particulars: for MIC: Acinetobacter baumannii; for Antibacterial activity (in words): clinical isolate ATCC 17961. The protocol:
(§2) Subsequently, the activities of the disclosed compounds were evaluated against four clinical isolates of A. baumannii (ATCC 17961, ATCC BAA1793, ATCC BAA1797 and ATTC BAA1800). All four A. baumannii isolates were resistant to compounds 3, 22, 23, and 27. Strain ATCC 17961 was susceptible to both 26 and 1, indicating lack of or low β-lactamase content and/or activity.

Assay [3] has as its system A. baumannii ATCC BAA 1793. Briefly: MIC against clinical isolate. In kind it is cell-based, Acinetobacter baumannii. To be noted: for MIC: Acinetobacter baumannii; for Antibacterial activity (in words): clinical isolate ATCC BAA1793. On the procedure: as §2
Assay [4] deals with A. baumannii ATCC BAA 1797. Briefly: MIC against clinical isolate. To be noted: for MIC: Acinetobacter baumannii; for Antibacterial activity (in words): clinical isolate ATCC BAA1797. In kind it is cell-based, Acinetobacter baumannii. The protocol: as §2
Assay [5] has as its system A. baumannii ATCC BAA 1800. Description: MIC against clinical isolate. In kind it is cell-based, Acinetobacter baumannii. Particulars: for MIC: Acinetobacter baumannii; for Antibacterial activity (in words): clinical isolate ATCC BAA1800. On the procedure:
as §2

The subject of another assay is E. coli DC0. Description: MIC against other Gram-negative bacteria. To be noted: for Antibacterial activity (in words): Escherichia coli DC0; for MIC: Escherichia coli, DC0, read-out: Activity (MIC).
The subject of a further assay is P. aeruginosa KW799/wt. Briefly: MIC against other Gram-negative bacteria. Particulars: for Antibacterial activity (in words): Pseudomonas aeruginosa KW799.
The next assay relates to ADC-1 β-lactamase. Briefly: Enzymatic hydrolysis by ADC-1, LC/MS. In kind it is biochemical, A. baumannii. To be noted: 20 μM compound, 20 μM ADC-1, 50 mM sodium phosphate pH 7.4, room temperature, 40 min. On the procedure: With the final siderophore-cephalosporin-oxazolidinone conjugate (1) along with the separate cephalosporin and oxazolidinone conjugates (26 and 27) as well as the corresponding cephalosporin (23), oxazolidinone (3) and eperezolid (17) available, enzymatic and anti-bacterial assays were performed to test the susceptibility of conjugate (1) to the hydrolytic activity of β-lactamases from Gram-negative bacteria. Thus, assays were conducted to evaluate whether the oxazolidinone could be efficiently released from the final siderophore-cephalosporin-oxazolidinone conjugate (1) as a result of cephalosporin hydrolysis by a β-lactamase. For this purpose, one of the ADC-type β-lactamases (ADC-1) was chosen as ADC enzymes are intrinsic to A. baumannii, an important clinical pathogen, and are capable of hydrolyzing cephalosporin antibiotics.
The ADC-1 β-lactamase was expressed and purified as previously described (Bhattacharya et al., Acta Crystallogr., Sect. D: Biol. Crystallogr., 2014, 70, 760-771). Conjugate 1 (10 mM in DMSO) was diluted 5-fold in DMSO and then another 10-fold in 50 mM sodium phosphate, pH 7.4 to give a 200 μM solution with 10% DMSO. Subsequently, a 60 μL reaction was prepared consisting of 20 μM of 1 (6 μL of a 200 μM solution) and 20 μM ADC-1 β-lactamse (8.1 μL of 148 μM enzyme) in 50 mM sodium phosphate, pH 7.4 (the final concentration of DMSO was 1%). […]

[6] abbreviates: ATCC17961, read-out: Activity (MIC).
[7] abbreviates: BAA1793, read-out: Activity (MIC).
The mark [8] stands for this setting: BAA1797, read-out: Activity (MIC).
Setting [9] is: BAA1800, read-out: Activity (MIC).
Setting [10] is: Pseudomonas aeruginosa, KW799/WT, read-out: Activity (MIC).
The mark [11] stands for this setting: ATCC17961, A. baumannii ATCC 17961, read-out: Activity (MIC).
Where [12] appears, read: BAA1793, A. baumannii ATCC BAA 1793, read-out: Activity (MIC).
The mark [13] stands for this setting: BAA1797, A. baumannii ATCC BAA 1797, read-out: Activity (MIC).
The mark [14] stands for this setting: BAA1800, A. baumannii ATCC BAA 1800, read-out: Activity (MIC).

Procedure for E. coli DC0: (§3) This plasmid was then introduced by electroporation into A. baumannii ATCC 17978 for MIC measurements. MIC analyses were performed using iron depleted media as described previously (Ghosh, J. Med. Chem., 2017, 60, 4577-4583).
Procedure for P. aeruginosa KW799/wt: as §3

As to `CC(=O)NC[C@H]1CN(c2ccc(N3CCN(C(=O)CNC(=O)CN(CCCCNC(=O)c4cccc(O)c4O)C(=O)c4cccc(O)c4O)CC3)c(F)c2)C(=O)O1` [Compound 27, (S)—N-(2-((2-(4-(4-(5-(Acetamidomethyl)-2-oxooxazolidin-3-yl)-2-fluorophenyl)piperazin-1-yl)-2-oxoethyl)amino)-2-oxoethyl)-N-(4-(2,3-dihydroxybenzamido)butyl)-2,3-dihydroxybenzamide], the “Antibacterial activity (in words)” value is listed as “not active” in the assay on A. baumannii ATCC 17978; “resistant” in the assay on A. baumannii ATCC 17961; “resistant” in assay [3]; “resistant” in [4]; “resistant” in assay [5]; “not active” in the assay with E. coli DC0. Moreover, in the assay on P. aeruginosa KW799/wt, the “Antibacterial activity (in words)” value is “not active”. The MIC (in the assay with A. baumannii ATCC 17978; in [1]; in assay [2]; in the assay with A. baumannii ATCC 17961 (setting [6]); in assay [3] (setting [7]); in assay [4] (setting [8])) was more than 50 µM in each case. Further, the MIC (in assay [5] (setting [9]); with E. coli DC0; with P. aeruginosa KW799/wt (setting [10])) was more than 50 µM in each case.
For `CC(=O)NC[C@H]1CN(c2ccc(N3CCN(C(=O)CNC(=O)OCC4=C(C(=O)O)N5C(=O)[C@@H](NC(=O)C(NC(=O)CN(CCCCNC(=O)c6cccc(O)c6O)C(=O)c6cccc(O)c6O)c6ccccc6)[C@H]5SC4)CC3)c(F)c2)C(=O)O1` (stereo partly drawn) [Compound 1, (6R,7R)-3-((((2-(4-(4-((S)-5-(Acetamidomethyl)-2-oxooxazolidin-3-yl)-2-fluorophenyl)piperazin-1-yl)-2-oxoethyl)carbamoyl)oxy)methyl)-7-(2-(2-(N-(4-(2,3-dihydroxybenzamido)butyl)-2,3-dihydroxybenzamido)acetamido)-2-phenylacetamido)-8-oxo-5-thia-1-azabicyclo[4.2.0]oct-2-ene-2-carboxylic acid], the “Antibacterial activity (in words)” value in the assay with A. baumannii ATCC 17978 is recorded as “similarly potent activity”; in the assay on A. baumannii ATCC 17961 it was “susceptible”; in [3], “very active”; in assay [4] it was “very active”; in [5], “very active”; with E. coli DC0 it was “remarkably active”. Besides, in the assay with P. aeruginosa KW799/wt, the “Antibacterial activity (in words)” value is “remarkably active”. Besides, the MIC in the assay with A. baumannii ATCC 17978 was 0.4 µM (≈ 0.473 µg/mL); in [1], 0.4 µM (≈ 0.473 µg/mL); in assay [2], 6 µM (≈ 7.1 µg/mL); in the assay with A. baumannii ATCC 17961 (setting [6]) it was 0.8 µM (≈ 0.947 µg/mL); in [3] (setting [7]) it was 0.8 to 1.6 µM (≈ 0.947 to 1.89 µg/mL); in assay [4] (setting [8]), 6.25 µM (≈ 7.39 µg/mL). Moreover, the values for the MIC (in assay [5] (setting [9]); in the assay on E. coli DC0; in the assay with P. aeruginosa KW799/wt (setting [10])) were 0.8 µM (≈ 0.947 µg/mL), less than 0.025 µM and 0.2 to 0.4 µM (≈ 0.237 to 0.473 µg/mL), respectively. In assay [2] (A. baumannii with plasmid-encoded β-lactamase, versus 26), the “Decrease of MIC compared to the siderophore-cephalosporin” value is given as “at least 8 fold”. For the same compound, in the assay with ADC-1 β-lactamase, the “Hydrolysis by purified ADC-1 and release of oxazolidinone” value was “rapid and complete hydrolysis and release of the oxazolidinone”.
Regarding `CC(=O)OCC1=C(C(=O)O)N2C(=O)[C@@H](NC(=O)C(NC(=O)CN(CCCCNC(=O)c3cccc(O)c3O)C(=O)c3cccc(O)c3O)c3ccccc3)[C@H]2SC1` (stereo partly drawn) [Compound 26, (6R,7R)-3-(Acetoxymethyl)-7-(2-(2-(N-(4-(2,3-dihydroxybenzamido)butyl)-2,3-dihydroxybenzamido)acetamido)-2-phenylacetamido)-8-oxo-5-thia-1-azabicyclo[4.2.0]oct-2-ene-2-carboxylic acid], the “Antibacterial activity (in words)” value is given as “remarkably active” in the assay with A. baumannii ATCC 17978; “highly resistant” in assay [2] (A. baumannii with plasmid-encoded β-lactamase (pNT255:adc1)); “susceptible” in the assay on A. baumannii ATCC 17961; “detectable activity” in assay [3]; “resistant” in [4]; “detectable activity” in assay [5]. Moreover, the “Antibacterial activity (in words)” value in the assay on E. coli DC0 and in the assay with P. aeruginosa KW799/wt was “remarkably active” in each case. Besides, the MIC is 0.4 µM (≈ 0.322 µg/mL) against A. baumannii ATCC 17978; 0.4 µM (≈ 0.322 µg/mL) in [1]; more than 50 µM in assay [2]; 0.8 µM (≈ 0.645 µg/mL) in the assay with A. baumannii ATCC 17961 (setting [11]); 12.5 µM (≈ 10.1 µg/mL) in assay [3] (setting [12]); more than 50 µM in assay [4] (setting [13]). The MIC is 25 µM (≈ 20.1 µg/mL) in [5] (setting [14]), less than 0.025 µM with E. coli DC0, 0.4 µM (≈ 0.322 µg/mL) in the assay with P. aeruginosa KW799/wt (setting [10]) and 0.4 with P. aeruginosa KW799/wt (vs P. aeruginosa KW799/wt).
For `CC(=O)NC[C@H]1CN(c2ccc(N3CCN(C(=O)CNC(=O)OCC4=C(C(=O)O)N5C(=O)[C@@H](NC(=O)C(N)c6ccccc6)[C@H]5SC4)CC3)c(F)c2)C(=O)O1` (stereo partly drawn) [Compound 22, (6R,7R)-3-((((2-(4-(4-((S)-5-(Acetamidomethyl)-2-oxooxazolidin-3-yl)-2-fluorophenyl)piperazin-1-yl)-2-oxoethyl)carbamoyl)oxy)methyl)-7-(2-amino-2-phenylacetamido)-8-oxo-5-thia-1-azabicyclo[4.2.0]oct-2-ene-2-carboxylic acid], the “Antibacterial activity (in words)” value in the assay with A. baumannii ATCC 17978 is recorded as “not active”; in the assay on A. baumannii ATCC 17961, “resistant”; in assay [3] it was “resistant”; in assay [4], “resistant”; in assay [5] it was “resistant”; in the assay with E. coli DC0, “not active”. Also, the “Antibacterial activity (in words)” value with P. aeruginosa KW799/wt is “not active”. In addition, the MIC (in the assay with A. baumannii ATCC 17978; in [1]; in assay [2]; in the assay on A. baumannii ATCC 17961 (setting [11]); in assay [3] (setting [12]); in [4] (setting [13])) was more than 50 µM each time. For the same compound, the MIC (in assay [5] (setting [14]); in the assay on E. coli DC0; in the assay on P. aeruginosa KW799/wt (setting [10])) was more than 50 µM each time.
With `CC(=O)NC[C@H]1CN(c2ccc(N3CCN(C(=O)CN)CC3)c(F)c2)C(=O)O1` [Compound 3, (S)—N-((3-(3-Fluoro-4-(4-glycylpiperazin-1-yl)phenyl)-2-oxooxazolidin-5-yl)methyl)acetamide], the “Antibacterial activity (in words)” value in the assay with A. baumannii ATCC 17978 was “not active”; in the assay on A. baumannii ATCC 17961 it was “resistant”; in assay [3], “resistant”; in assay [4] it was “resistant”; in assay [5] it was “resistant”; in the assay on E. coli DC0, “not active”. For the same compound, the “Antibacterial activity (in words)” value with P. aeruginosa KW799/wt is “not active”. The MIC with A. baumannii ATCC 17978 is more than 500 µM; in assay [1], more than 500 µM; in assay [2], more than 500 µM; in the assay on A. baumannii ATCC 17961 (setting [6]) it was more than 50 µM; in assay [3] (setting [7]), more than 50 µM; in [4] (setting [8]) it was more than 50 µM. Besides, the MIC (in [5] (setting [9]); in the assay on E. coli DC0; in the assay with P. aeruginosa KW799/wt (setting [10])) was more than 50 µM each time.
Turning to `CC(=O)NC[C@H]1CN(c2ccc(N3CCN(C(=O)CO)CC3)c(F)c2)C(=O)O1` [Compound 17, eperezolid, reference compound], the “Antibacterial activity (in words)” value in the assay on A. baumannii ATCC 17978 is “not active”. The MIC (against A. baumannii ATCC 17978; in assay [1]; in assay [2]) was more than 50 µM each time.
